Measured values published in patent US9505834B2, “Methods for controlling the galactosylation profile of recombinantly-expressed proteins” (AbbVie Inc., priority 2011, dated 2016).
Where two headings read alike, the source gives them in different places.

Legend:
[1] = test system: adalimumab-producing CHO cell line #3; experiment: Example 5 culture growth & productivity; type: cell-based, Chinese Hamster; conditions: 30 mM galactose alone
Method: (§1) For all studies with CHO cell lines described throughout this invention, samples were collected daily and measured for cell density and viability using a Cedex cell counter. Retention samples for titer analysis via Poros A method were collected by centrifugation at 12,000 RPM for 5 min when the culture viability began declining. The cultures were harvested by collecting 125 mL aliquots and centrifuging at 3,000 RPM for 30 min when culture viability was near or below 50%. All supernatants were stored at −80° C. until analysis.
Growth and production media for the adalimumab-producing CHO cell line #3 were prepared using the proprietary Life Technologies Gibco chemically defined media, GIA-1.
Upon thaw, cells were expanded in Corning vented non-baffled shake flasks maintained on orbital shakers at 140 RPM, and in 10 L cell bags (2 L working volume) maintained at 25 RPM, 7° angle, and 0.25 SLPM airflow in a dry incubator at 36° C. and 5% CO2. Production cultures were initiated in 3 L bioreactors (1.4 L initial working volume) at 36° C., 30% dissolved oxygen, 200 RPM, and pH 6.9±0.2. A fixed split ratio of cells to media of 1:6.7 was utilized to initiate the production stage cultures. A temperature shift was performed when the culture VCD reached a value higher than 5×10^6 cells/mL. […]

[2] = test system: CHO cell line producing mAb #2
Method: as §1
Growth and production media for the mAb #2 producing CHO cell line were prepared using the proprietary Life Technologies Gibco chemically defined media, GIA-1.
Upon thaw, cells were expanded in Corning vented non-baffled shake flasks maintained on orbital shakers at 140 RPM, and in 10 L cell bags (2 L working volume) maintained at 25 RPM, 7° angle, 0.25 SLPM airflow in a dry incubator at 36° C. and 5% CO2. Production cultures were initiated in 3 L bioreactors (1.5 L initial working volume) at 36° C., 25% dissolved oxygen, 200 RPM, and pH 7.0. The chemically-defined feed from Life Technologies Gibco JCL-5 was added as follows: 3% (v/v)—day 3, 5%—day 5, 7%—day 7, 10%—day 9, and 10%—day 11. […] Bioreactors were harvested at viability of approximately 70% or below or on production day 15, whichever condition occurred first. […]

Compound	growth profile [1]	growth profile ([2]; 25 μM manganese chloride alone)	growth profile ([2]; manganese chloride 50 μM or 75 μM)
O=C[C@H](O)[C@@H](O)[C@@H](O)[C@H](O)CO [galactose, D(+)Galactose]	grew slower and reached a lower peak VCD		
Manganese (II) Chloride [manganese chloride]		grew slower after production day 7	growth profiles comparable to the control culture
